# PubChem BioAssay AID2060898 (Molecular Pharmacology Branch, DTP, NCI, 2025)
# Tested on: 616215-338-R-J1-PDC complex spheroid viability
# Experiment: Anticancer human tumor 616215-338-R-J1-PDC patient-derived colon adenocarcinoma cell line growth inhibition [RAS]
# Settings: for IC50: curve of first compound; for viability, T/C: stronger effect = lower value
# Description: RAS pathway inhibitors in Combinations in Complex Spheroids
# A high-throughput screen of multi-cell type tumor spheroids was designed to identify active combinations of RAS pathway inhibitors and targeted small molecules. Complex spheroids include a stromal component modeled by human endothelial cells (HUVEC) and fibroblasts modeled by human mesenchymal stem cells (MSCs). The concentration ranges selected for each drug and investigational agent were based upon clinically achievable concentrations if the clinical Cmax of the agent was known.
# Compounds. The drugs and investigational agents: abemaciclib (NSC768073), cobimetinib (NSC768068), divarasib (GDC6063, NSC841802), docetaxel (NSC628503), GDC-1971 (RLY-1971, NSC841576), gemcitabine (NSC613327), inavolisib (NSC800729), ipatasertib (NSC767898), KB-0742 (NSC834161), MRTX-1133 (NSC836407), osimertinib (NSC779217), RMC-4630 (NSC839698), RMC-6236 (NSC851965), RMC-6291 (NSC852671), Ro-3306 (NSC812927), sapanisertib (NSC764658), SN-38 (NSC673596), staurosporine (NSC755774), SY5609 (NSC837396), and tovorafenib (DAY101, NSC766906), were obtained from the National Cancer Institute (NCI) Developmental Therapeutics Program Chemical Repository. The FDA-approved anticancer drug set is available from the NCI Developmental Therapeutics Program. […] The stock solutions were prepared in dimethyl sulfoxide (DMSO, Sigma-Aldrich, St. Louis, MO, cat. D2650) at 800-fold the tested concentration and stored at -70 degrees C prior to their use. All drugs and investigational agents were tested over a range starting from a high concentration at or near the clinical Cmax and decreasing in half-log increments. If the clinical Cmax for an agent had not been determined, the highest concentration tested was 10 microM.
# Cell Culture. All cells were maintained in an incubator at 37 degrees C and 5% CO2 with 95% humidity. The PDC lines were cultured according to standard operating procedures established by the NCI PDMR. All PDCs were thawed and cultured in Matrigel-coated flasks prepared with a working solution of 1X Ham's F-12 nutrient mix, without supplementation (Invitrogen, Waltham, MA, cat. 11765054), 100 U/mL penicillin-streptomycin (Invitrogen, cat. 15140122), and 2.5% Matrigel (Corning Inc., Corning, NY, cat. 354248) for the first three passages. The 362531-283-R-J2-PDC and 782815-120-R-J1-PDC lines were cultured in 6C/Colon 1B media, which includes advanced DMEM/F-12 (Thermo Fisher Scientific, cat. 12634028), 10 mM HEPES (Thermo Fisher Scientific, cat. 15630080), 1X GlutaMAX supplement (Thermo Fisher Scientific, cat. 35050061), 0.1 mg/mL primocin (InvivoGen, San Diego, CA, cat. ant-pm-2), 10% defined fetal bovine serum, heat inactivated (HyClone Laboratories Inc., Logan, UT, cat. SH30070.03HI), 50% L-WRN conditioned media (ATCC, cat. CRL-3276), 1.25 mM N-Acetyl-L-cysteine (Sigma-Aldrich, cat. A9165), 10 mM nicotinamide (Sigma-Aldrich, cat. N0636), 1X B-27 supplement (Thermo Fisher Scientific, cat. 17504044), 1X N-2 supplement (Thermo Fisher Scientific, cat. 17502048), 50 ng/mL human EGF (Thermo Fisher Scientific, cat. PHG0311), and 10 microM Y-27632 dihydrochloride (Tocris Bioscience, cat. 1254). The K12877-001-R-J1-PDC line was cultured in 6I media, which includes all 6C/Colon 1B media plus 10 ng/mL human FGF-10 (PeproTech, cat. 100-26), 1 ng/mL human FGF-2 (PeproTech, cat. 100-18B), 1 µM prostaglandin E2 (Tocris Bioscience, cat. 2296), […] hydrocortisone (Sigma-Aldrich, cat. H4001), and […] bovine insulin (Sigma-Aldrich, cat. I6634). The K86415-001-R-J1-PDC line was cultured in 6D media, which includes all 6C/Colon 1B media components minus the L-WRN conditioned media. The 485176-168-R4-J1-PDC was cultured in PANC media, which includes all 6C/Colon 1B media plus 100 ng/mL human FGF-10 (PeproTech, cat. 100-26), 500 nM SB-431542 (Selleckchem, cat. S1067), and 10 nM gastrin (Tocris Bioscience, cat. 3006). […]
# 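Further: spheroids exposed to agents for seven days before viability readout.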
# 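Wherever viability, T/C is given: 100% = DMSO vehicle control viability.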
smiles,measurement,setting,value
CC(C)n1nc(-c2ccc3oc(N)nc3c2)c2c(N)ncnc21 + C#Cc1c(F)ccc2cc(O)cc(-c3ncc4c(N5CC6CCC(C5)N6)nc(OCC56CCCN5CC(F)C6)nc4c3F)c12,IC50,second compound 0.0316 µM,> 0.1 µM
same,IC50,second compound 0.1 µM,> 0.1 µM
same,IC50,second compound 0.316 µM,> 0.1 µM
same,IC50,second compound 1 µM,> 0.1 µM
same,IC50,second compound 3.16 µM,0.0599 µM
same,IC50,second compound 10 µM,0.0139 µM
same,"viability, T/C","second compound 0.0316 µM, first compound 0.000316 µM",113%
same,"viability, T/C","second compound 0.0316 µM, first compound 0.001 µM",119%
same,"viability, T/C","second compound 0.0316 µM, first compound 0.00316 µM",112%
same,"viability, T/C","second compound 0.0316 µM, first compound 0.01 µM",114%
same,"viability, T/C","second compound 0.0316 µM, first compound 0.0316 µM",104%
same,"viability, T/C","second compound 0.0316 µM, first compound 0.1 µM",57.1%
same,"viability, T/C","second compound 0.1 µM, first compound 0.000316 µM",116%
same,"viability, T/C","second compound 0.1 µM, first compound 0.001 µM",107%
same,"viability, T/C","second compound 0.1 µM, first compound 0.00316 µM",113%
same,"viability, T/C","second compound 0.1 µM, first compound 0.01 µM",106%
same,"viability, T/C","second compound 0.1 µM, first compound 0.0316 µM",107%
same,"viability, T/C","second compound 0.1 µM, first compound 0.1 µM",58%
same,"viability, T/C","second compound 0.316 µM, first compound 0.000316 µM",116%
same,"viability, T/C","second compound 0.316 µM, first compound 0.001 µM",111%
same,"viability, T/C","second compound 0.316 µM, first compound 0.00316 µM",112%
same,"viability, T/C","second compound 0.316 µM, first compound 0.01 µM",112%
same,"viability, T/C","second compound 0.316 µM, first compound 0.0316 µM",99.9%
same,"viability, T/C","second compound 0.316 µM, first compound 0.1 µM",54.9%
same,"viability, T/C","second compound 1 µM, first compound 0.000316 µM",118%
same,"viability, T/C","second compound 1 µM, first compound 0.001 µM",111%
same,"viability, T/C","second compound 1 µM, first compound 0.00316 µM",121%
same,"viability, T/C","second compound 1 µM, first compound 0.01 µM",116%
same,"viability, T/C","second compound 1 µM, first compound 0.0316 µM",111%
same,"viability, T/C","second compound 1 µM, first compound 0.1 µM",54.2%
same,"viability, T/C","second compound 3.16 µM, first compound 0.000316 µM",86.8%
same,"viability, T/C","second compound 3.16 µM, first compound 0.001 µM",105%
same,"viability, T/C","second compound 3.16 µM, first compound 0.00316 µM",98.3%
same,"viability, T/C","second compound 3.16 µM, first compound 0.01 µM",77.9%
same,"viability, T/C","second compound 3.16 µM, first compound 0.0316 µM",67.9%
same,"viability, T/C","second compound 3.16 µM, first compound 0.1 µM",37.2%
same,"viability, T/C","second compound 10 µM, first compound 0.000316 µM",76.8%
same,"viability, T/C","second compound 10 µM, first compound 0.001 µM",64.2%
same,"viability, T/C","second compound 10 µM, first compound 0.00316 µM",68.2%
same,"viability, T/C","second compound 10 µM, first compound 0.01 µM",49.2%
same,"viability, T/C","second compound 10 µM, first compound 0.0316 µM",44.2%
same,"viability, T/C","second compound 10 µM, first compound 0.1 µM",27.9%
